One data set can be described thus: Kinetic solubility assay. Type of data set: physicochemical. Conditions: 24 °C, kinetic from dmso stock, ambient temperature.
For a further data set, the system named is P. falciparum Dd2. Nature of the data set: Anti-plasmodial growth inhibition, SYBR green I-based DNA quantification. Type of data set: cell-based. The conditions noted are these: Plasmodium falciparum, 72 h incubation, n=3. In outline:
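Dd2 cultures at 1% parasitemia and 2% hematocrit in RPMI 1640 were exposed to compound over 0–20 μM (DMSO ≤0.25%) for 72 h at 37 °C. Growth was read by SYBR green I DNA quantification, with 1 μM chloroquine setting the baseline. EC50 was fitted from the dose-response curve, n=3.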

The subject of data set [1] is HepG2 human hepatoma cells. Nature of the data set: HepG2 cytotoxicity, MTS cell proliferation assay. The format is cell-based. Conditions: 48 h, n=1. In outline: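 HepG2 cells seeded at 2,500/well, grown 24 h, then exposed to compound serial dilutions for 48 h. Viability read by MTS assay; EC50 from n=1.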
Data set [2] is described as follows: PAMPA, Corning Gentest Pre-coated PAMPA plate. The format is in vitro ADME. The conditions noted are these: 1×PBS, pH 7.4, five hours, ambient temperature, read-out: Permeability (log Pe, in [cm/s]) (converted). As to the method: For selected compounds, a Parallel artificial membrane permeability assay (PAMPA) analysis was conducted. The 10 mM DMSO stock solutions for selected compounds (Tan003-M03, ent-Tan003-M03, Tan003-O08, and Tan003-D20) were diluted 50 fold with 1×PBS, pH 7.4, for a dose concentration of 200 µM and a volume of 300 μL in the Donor compartment of the Corning Gentest Pre-coated PAMPA plate. After preparation of the Donor plate, any precipitation was noted. The Acceptor compartment was filled with 1×PBS (200 μL), pH 7.4. After careful assembly of the PAMPA plate, it was left to incubate for five hours in the dark at ambient temperature. The previously prepared solubility assay was used to measure the initial concentration of the sample in buffer (C0). After the incubation was complete, the PAMPA plate was disassembled, and the samples were transferred from the Donor and Acceptor plates to 96-well plates for analysis by chemiluminescent nitrogen detection (CLND. The C0 plate was filtered prior to analysis by CLND.

The nature of data set [3]: Human microsomal stability. The conditions noted are these: t was 60 minutes. The format is in vitro ADME. Here is the method:
Select compounds described herein were evaluated for structure-activity analyses for anti-plasmodial activity in vitro. For Dd2 EC50 (M), calculations were for n=3. For HepG2 EC50 (M), calculations were for n=1. For the human microsomal stability determination, t was 60 minutes.
To determine microsomal stability for selected compounds, a reaction plate was prepared by adding 691.25 μL, pre-warmed (37° C.) microsomal solution (0.63 mg/mL protein in 100 mM KPO4 with 1.3 mM EDTA) to an empty well of a 96 well plate and maintained at 37° C. The diluted 0.1 mM compound (8.75 μL) is added to the microsomal solution in the reaction plate and mixed thoroughly by repeated pipetting. The resulting solutions were pre-incubated for 5 minutes at 37° C. before preparing the T=0 plates. For the T=0 plates, an aliquot (160 μL) of each reaction solution was added to an empty well of a 96 well plate, as an exact replicate of the Reaction Plate. Cold (4° C.) MeOH (400 μL) is added to each well and mixed thoroughly by repeated pipetting. NADPH Regeneration solution (40 μL) is added to each well and mixed thoroughly by repeated pipetting. For the T=60 minute Incubation Plates (without NADPH), an aliquot (160 μL) of each reaction solution was added to an empty well of a 96 well plate, as an exact replicate of the Reaction Plate. LC-MS grade H2O (40 μL) is added to each well and mixed thoroughly by repeated pipetting. The plate was sealed and incubated at 37° C. for the incubation period. After incubation, cold (4° C.) MeOH (400 μL) is added to each well and mixed thoroughly by repeated pipetting. For the T=60 minute Incubation Plates, NADPH (95 μL) was added to the remaining solution (microsomes+test compound) in each well in the previously-prepared reaction plate to initiate the reaction. The plate was sealed and incubated at 37° C. for the incubation period. An aliquot (100 μL) was removed from each well at the desired time point and dispensed into a well of a 96-well plate. 200 μL of cold (4° C.) MeOH was […] the reaction.

For data set [4], the system named is synchronized parasite cultures (Dd2). Nature of the data set: Stage specific parasite inhibition (Giemsa smears, flow cytometry). The format is cell-based, P. falciparum. Here is the method:
Select compounds described herein were evaluated for stage specific inhibition of parasite development. Tightly synchronized parasite cultures (Dd2) were treated with 3×IC50 concentrations of compound Tan003-M03 (“M03”), compound ent-Tan003-D20 (“D20-ent”), compound Tan003-O08 (“008”) or compound Tan002-O12 (“012”) at early ring, late ring, trophozoite, and schizont stages. Every 12 hours, Giemsa smears were made for treated cultures and samples were also collected and fixed for flow cytometry. […] Prior to flow analysis, fixed samples were permeabilized, RNase treated, and stained with YoYo-I as described in Bouillon et al., 2013. […] As the parasite matures, the DNA content increases and peaks start to spread to the right because of schizogony. Following reinvasion parasitemia increases in the next growth cycle, which is represented by an increase in peak height.

A further data set concerns Asynchronous cultures. Nature of the data set: Parasitocidal or parasitostatic determination (rate of killing). Type of data set: cell-based. Conditions: 3×IC50, asynchronous cultures treated for 12, 24, 48, or 72 hours, washed, monitored for continued growth. Here is the method: Asynchronous cultures were grown and treated with compounds, vehicle control or Dihydroartemisinin at 3×IC50 to determine their respective rate of killing curves. Cultures were treated for 12, 24, 48, or 72 hours with compound, washed several times to remove any inhibitor, and monitored for continued growth for several days. […] Overall, the exemplary compounds including, but not limited to, Tan003-M03 and ent-Tan003-D20 are parasitocidal agents blocking parasite maturation at the segmenter stage preventing egress, a novel mechanism of action absent among current antimalarials.

Setting [5] is: 50 mM NaPO4 pH 6.5 buffer, pH 6.5, aqueous buffer, 50 mM NaPO4 pH6.5, 2.0% DMSO, read-out: Solubility LogS, at pH 6.5 (converted).
[6] abbreviates: 1×PBS pH 7.4 buffer, pH 7.4, aqueous buffer, 1×PBS pH7.4, 2.0% DMSO, read-out: Solubility LogS, at pH 7.4 (converted).
Setting [7] is: SGF pH 1.2 buffer, pH 1.2, simulated gastric fluid, SGF pH1.2, 2.0% DMSO, read-out: Solubility LogS, at pH 1.2 (converted).

Values after ≈ are worked out from the molar mass of the structure shown. “Also recorded” adds a separate entry of the source. Where two headings read alike, the source gives them in different places.

In the case of `CC(C)(C)[S@@+]([O-])N1Cc2cc(C(=O)NCc3ccc4c(c3)OCO4)nc(-c3cccc(-c4cccnc4)c3)c2[C@H]1CCO` [Tan003-008], the solubility at 24 h in the data set “Kinetic solubility assay” (setting [5]) is 10 µM (≈ 5.99 µg/mL); in the data set “Kinetic solubility assay” (setting [6]), 12.6 µM (≈ 7.54 µg/mL); in the data set “Kinetic solubility assay” (setting [7]) it was 158 µM (≈ 94.9 µg/mL). Moreover, the results for the EC50 (in the data set with P. falciparum Dd2; in data set [1]) were 0.53 ± 0.11 µM and 41 µM, respectively. The Papp at 5 h, 200 µM in data set [2] was 1.82 ×10⁻⁶ cm/s. Further, in data set [3], the “Human microsomal stability (%)” value was under 1%.
`CC(C)(C)[S@+]([O-])N1Cc2cc(C(=O)NCc3ccccc3F)nc(-c3cccc(-c4cccnc4)c3)c2[C@@H]1CCO` [Tan003-D20]: the results for the solubility at 24 h in the data set “Kinetic solubility assay” (setting [5]), in the data set “Kinetic solubility assay” (setting [6]) and in the data set “Kinetic solubility assay” (setting [7]) were 6.31 µM (≈ 3.61 µg/mL), 7.94 µM (≈ 4.55 µg/mL) and 158 µM (≈ 90.8 µg/mL), respectively. Also, it took 0.38 ± 0.02 µM to reach a half-maximal effect in the data set with P. falciparum Dd2 (EC50). Moreover, in data set [2], the Papp at 5 h, 200 µM is 2.4 ×10⁻⁶ cm/s. Moreover, the “Human microsomal stability (%)” value in data set [3] is under 1%.
As for `CC(C)NC(=O)N1Cc2cc(C(=O)NCC(F)(F)F)nc(-c3cccc(-c4cc5ccccc5o4)c3)c2[C@H]1CCO` [Tan003-M03, (R)-4-(3-(benzofuran-2-yl)phenyl)-3-(2-hydroxyethyl)-N^2-isopropyl-N^6-(2,2,2-trifluoroethyl)-1,3-dihydro-2H-pyrrolo[3,4-c]pyridine-2,6-dicarboxamide], the solubility at 24 h was 6.31 µM (≈ 3.57 µg/mL) in “Kinetic solubility assay” (setting [5]), 7.94 µM (≈ 4.5 µg/mL) in “Kinetic solubility assay” (setting [6]) and 7.94 µM (≈ 4.5 µg/mL) in the data set “Kinetic solubility assay” (setting [7]). For the same compound, the “parasite stage development, Giemsa staining” value in data set [4] (3×IC50, synchronized Dd2 cultures treated at ring, trophozoite or schizont stages, smears every 12 hours) was “inhibit parasite development before egress”. Besides, the “parasite stage progression, flow cytometry” value in data set [4] (3×IC50, synchronized Dd2 cultures, YoYo-I DNA staining) is listed as “block parasite stage progression prior to egress”. Besides, the EC50 in the data set on P. falciparum Dd2 stood at 0.24 ± 0.07 µM; in data set [1], 45 µM. The Papp at 5 h, 200 µM in data set [2] is 3.98 ×10⁻⁶ cm/s. The “parasitocidal activity (rate of killing)” value in the data set with Asynchronous cultures is “parasitocidal and prohibit progression beyond segmenter stages; also recorded: parasitocidal and prevent any parasite development beyond the schizont stage when treated for at least 48 hours”. In addition, in data set [3], the “Human microsomal stability (%)” value is recorded as 61.5%.

Values taken from patent US12071436B2, “Anti-parasitic compounds and uses thereof” (Memorial Sloan-Kettering Cancer Center, priority 2016, dated 2024).
